Test results from ChEMBL document CHEMBL2046380, “Synthesis and structure-activity relationship of disubstituted benzamides as a novel class of antimalarial agents” (Bioorg Med Chem Lett, 2012).
pEC50: −log10 of the molar value.

Columns and labels:
Plasmodium falciparum [1] = test: Antimalarial activity against chloroquine-sensitive Plasmodium falciparum 3D7 incubated for 72 hrs by DNA staining based MAR3D7 growth inhibition assay; format: functional, organism-based; settings: 3D7, 72 h
BJ = test: Cytotoxicity against human BJ cells after 72 hrs by […] CellTiterGlo reagent assay; format: cell-based
HepG2 = test: Cytotoxicity against human HepG2 cells after 72 hrs by […] CellTiterGlo reagent assay; format: cell-based; settings: HepG2, 72 h
HEK293 = test: Cytotoxicity against human HEK293 cells after 72 hrs by […] CellTiterGlo reagent assay; format: cell-based; settings: HEK293, 72 h
Raji = test: Cytotoxicity against human Raji cells after 72 hrs by […] CellTiterGlo reagent assay; format: cell-based
Plasmodium falciparum [2] = test: Antimalarial activity against […] incubated for 72 hrs by DNA staining based MARK1 growth inhibition assay; format: functional, organism-based

Compound	pEC50 (Plasmodium falciparum [1])	pEC50 (BJ)	pEC50 (HepG2)	pEC50 (HEK293)	pEC50 (Raji)	pEC50 (Plasmodium falciparum [2])
CCCNCc1ccccc1OCCCCCC(=O)OCC	< 4.82	< 4.58	< 4.58	< 4.58	< 4.58	< 4.82
CCOC(=O)CCCCCOc1cccc(CN(C(=O)c2ccc(-c3cccc(N(C)C)c3)cc2)C(C)C)c1	< 4.82	< 4.58	< 4.58	< 4.58	< 4.58	< 4.82
CC(C)N(Cc1cccc(OCCCCCC(=O)O)c1)C(=O)c1ccc(-c2cccc([N+](=O)[O-])c2)cc1	> 9.40	< 4.58	< 4.58	< 4.58	< 4.58	< 4.82
CCOC(=O)CCCCCOc1cccc(CN(C(=O)c2ccc(-c3cccc(S(C)(=O)=O)c3)cc2)C(C)C)c1	< 4.82	< 4.58	< 4.58	< 4.58	< 4.58	< 4.82
CCCNCc1ccc(OCCCCCC(=O)OCC)cc1	< 4.82	< 4.58	< 4.58	< 4.58	< 4.58	< 4.82
CC(C)N(Cc1cccc(OCCCCCC(=O)O)c1)C(=O)c1ccc(-c2cccc(S(C)(=O)=O)c2)cc1	< 4.82	< 4.58	< 4.58	< 4.58	< 4.58	< 4.82
CC(C)N(Cc1cccc(OCCCCCC(=O)O)c1)C(=O)c1ccc(-c2ccc3c(c2)OCO3)cc1	7.22	< 4.58	< 4.58	< 4.58	< 4.58	6.36
C[C@@H](NC(=O)c1ccc(-c2ccc3c(c2)OCO3)cc1)c1ccccc1	< 4.82	< 4.58	< 4.58	< 4.58	< 4.58	< 4.82
CC(C)N(Cc1cccc(OCCCCCC(=O)O)c1)C(=O)c1ccc(-c2cc3ccccc3n2S(=O)(=O)c2ccccc2)cc1	< 4.82	< 4.58	< 4.58	< 4.58	< 4.58	< 4.82
O=C(Nc1ccc2c(c1)OCO2)c1cc(-c2cccs2)nc2ccccc12	< 4.82	< 4.58	< 4.58	< 4.58	< 4.58	< 4.82
CC(C)N(Cc1cccc(OCCCCCC(=O)O)c1)C(=O)c1ccc(-c2cccc(Br)c2)cc1	< 4.82	< 4.58	< 4.58	< 4.58	< 4.58	< 4.82
CC(C)N(Cc1cccc(OCCCCCC(=O)O)c1)C(=O)c1ccc(-c2ccsc2)cc1	< 4.82	< 4.58	< 4.58	< 4.58	< 4.58	< 4.82
COc1cc2c(cc1OC)C(C)=NCC2	< 5.12	< 4.89	< 4.89	< 4.89	< 4.89	< 5.12
CCOC(=O)CCCCCOc1cccc(CN(C(=O)c2ccc(-c3cccc(NC(C)=O)c3)cc2)C(C)C)c1	< 4.82	< 4.58	< 4.58	< 4.58	< 4.58	< 4.82
CCOC(=O)CCCCCOc1cccc(CN(C(=O)c2ccc(-c3cccc(OC(C)C)c3)cc2)C(C)C)c1	< 4.82	< 4.58	< 4.58	< 4.58	< 4.58	< 4.82
CCOC(=O)CCCCCOc1cccc(CN(C(=O)c2ccc(-c3cccc(O)c3)cc2)C(C)C)c1	< 4.82	< 4.58	< 4.58	< 4.58	< 4.58	< 4.82
CC(C)N(Cc1cccc(OCCCCCC(=O)O)c1)C(=O)c1ccc(-c2ccc(Cl)c(Cl)c2)cc1	< 4.82	< 4.58	< 4.58	< 4.58	< 4.58	7.76
CCOC(=O)CCCCCOc1cccc(CN(C(=O)c2ccc(-c3ccc4c(c3)OCCO4)cc2)C(C)C)c1	< 4.87	< 4.61	< 4.61	< 4.61	< 4.61	< 4.87
CCOC(=O)CCCCCOc1cccc(CN(C(=O)c2ccc(-c3cc4ccccc4n3S(=O)(=O)c3ccccc3)cc2)C(C)C)c1	< 4.82	< 4.58	< 4.58	< 4.58	< 4.58	< 4.82
CC(C)N(Cc1cccc(OCCCCCC(=O)O)c1)C(=O)c1ccc(-c2ccc3cc[nH]c3c2)cc1	< 4.82	< 4.58	< 4.58	< 4.58	< 4.58	< 5.82
CC(C)N(Cc1cccc(OCCCCCC(=O)O)c1)C(=O)c1ccc(-c2cccc(CC#N)c2)cc1	< 4.82	< 4.58	< 4.58	< 4.58	< 4.58	< 4.82
CCOC(=O)CCCCCOc1cccc(CN(C(=O)c2ccc(-c3ccc(C(C)=O)s3)cc2)C(C)C)c1	< 4.82	< 4.58	< 4.58	< 4.58	< 4.58	< 4.82

Compound	pEC50 (Plasmodium falciparum [1])	pEC50 (BJ)	pEC50 (HepG2)	pEC50 (HEK293)	pEC50 (Raji)	pEC50 (Plasmodium falciparum [2])
COc1cc2c(cc1OC)C1(CC=CCC1)N(C(C)=O)CC2 (stereo not drawn)	< 5.12	< 4.89	< 4.89	< 4.89	< 4.89	< 5.12
COC(=O)c1cc(-c2cccs2)nc2ccccc12	< 4.82	< 4.58	< 4.58	< 4.58	< 4.58	< 4.82
[N-]=[N+]=NC[C@H](O)c1ccc2c(c1)OCO2	< 5.12	< 4.89	< 4.89	< 4.89	< 4.89	< 5.12
CCCN(Cc1ccccc1OCCCCCC(=O)OCC)C(=O)c1ccc(-c2ccc3c(c2)OCO3)cc1	< 4.82	< 4.58	< 4.58	< 4.58	< 4.58	< 4.82
CCOC(=O)CCCCCOc1cccc(CN(C(=O)c2ccc(-c3cn(S(=O)(=O)c4ccccc4)c4ccccc34)cc2)C(C)C)c1	< 4.82	< 4.58	< 4.58	< 4.58	< 4.58	< 4.82
CCOC(=O)CCCCCOc1cccc(CN(C(=O)c2ccc(-c3cccc(OCc4ccccc4)c3)cc2)C(C)C)c1	< 4.82	< 4.58	< 4.58	< 4.58	< 4.58	< 4.82
COc1cccc(-c2ccc(C(=O)N(Cc3cccc(OCCCCCC(=O)O)c3)C(C)C)cc2)c1	< 4.94	< 4.68	< 4.58	< 4.68	< 4.68	< 4.94
CCOC(=O)CCCCCOc1cccc(CN(C(=O)c2ccc(-c3cc(OC)ccc3F)cc2)C(C)C)c1	< 4.82	< 4.58	< 4.58	< 4.58	< 4.58	< 4.82
COc1ccc(C(=O)C(Br)N=[N+]=[N-])cc1OC (stereo not drawn)	< 5.12	< 4.89	< 4.89	< 4.89	< 4.89	< 5.12
CCOC(=O)CCCCCOc1ccccc1CNC(C)C	< 4.82	< 4.58	< 4.58	< 4.58	< 4.58	< 4.82
CCOC(=O)CCCCCOc1cccc(CN(C(=O)c2ccc(-c3cccc(OCC(C)C)c3)cc2)C(C)C)c1	< 4.82	< 4.58	< 4.58	< 4.58	< 4.58	< 4.82
CCOC(=O)CCCCCOc1cccc(CN(C(=O)c2ccc(-c3cccc(-c4nnc(C)o4)c3)cc2)C(C)C)c1	< 4.82	< 4.58	< 4.58	< 4.58	< 4.58	< 4.82
CCOC(OCC)C1=NCCc2cc(OC)c(OC)cc21	< 5.12	< 4.89	< 4.89	< 4.89	< 4.89	< 5.12
CCCNCc1cccc(OCCCCCC(=O)OCC)c1	< 4.82	< 4.58	< 4.58	< 4.58	< 4.58	< 4.82
CCOC(=O)CCCCCOc1cccc(CN(C(=O)c2ccc(-c3ccco3)cc2)C(C)C)c1	< 4.82	< 4.58	< 4.58	< 4.58	< 4.58	< 4.82
CC(C)N(Cc1cccc(OCCCCCC(=O)O)c1)C(=O)c1ccccc1	< 4.82	< 4.58	< 4.58	< 4.58	< 4.58	8.13
CCCN(Cc1cccc(OCCCCCC(=O)O)c1)C(=O)c1ccc(-c2ccc3c(c2)OCO3)cc1	6.76	< 4.58	< 4.58	< 4.58	< 4.58	6.00
CC(C)N(Cc1cccc(OCCCCCC(=O)O)c1)C(=O)c1ccc(-c2ccc3[nH]ccc3c2)cc1	< 4.82	< 4.58	< 4.58	< 4.58	< 4.58	< 4.82
CC(C)N(Cc1cccc(OCCCCCC(=O)O)c1)C(=O)c1ccc(-c2cccc(F)c2)cc1	< 4.82	< 4.58	< 4.58	< 4.58	< 4.58	< 4.82
COc1cc(F)cc(-c2ccc(C(=O)N(Cc3cccc(OCCCCCC(=O)O)c3)C(C)C)cc2)c1	< 4.82	< 4.58	< 4.58	< 4.58	< 4.58	< 4.82
COc1cc2c(cc1OC)C(CC1(C)OCCO1)=NCC2	< 5.12	< 4.89	< 4.89	< 4.89	< 4.89	< 5.12
